± gives the standard deviation of the averaged measurements.
Key:
Test in all cases: relative viability vs DMSO control (72 h) (fraction); higher = more viable cells
RD = tested on: RD
Procedure, shortened: (§1)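 Sarcoma cell lines in 384-well plates, seeded to reach 80–90% confluence, were given compound after 24 h and kept 72 h at 37 °C, 5% CO2, with 0.1% DMSO vehicle and a 5 µM positive control. Relative viability came from ATPLite as percent growth, averaged over up to triplicate wells. On the rescaled values, 1 equals full and 0 equals none.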

VA-ES-BJ = tested on: VA-ES-BJ
Procedure, shortened: as §1

HT1080 = tested on: HT1080
Procedure, shortened: as §1

KHOS-NP = tested on: KHOS-NP
Procedure, shortened: as §1

RD-ES = tested on: RD-ES
Procedure, shortened: as §1

CN(C)C/C=C/C(=O)Nc1cc2c(Nc3ccc(F)c(Cl)c3)ncnc2cc1O[C@H]1CCOC1 [Afatinib]
relative viability
Conditions | HT1080 | KHOS-NP | RD | RD-ES | VA-ES-BJ
0.00017 µM | 1.1 ± 0.052 | 1.09 ± 0.018 | 1.08 ± 0.036 | 0.992 ± 0.042 | 1.09 ± 0.064
0.00051 µM | 1.12 ± 0.021 | 1.08 ± 0.016 | 1.13 ± 0.097 | 0.986 ± 0.04 | 1.1 ± 0.052
0.00152 µM | 1.1 ± 0.065 | 1.07 ± 0.025 | 1.15 ± 0.059 | 1 ± 0.048 | 1.06 ± 0.042
0.00457 µM | 1.08 ± 0.038 | 1.07 ± 0.019 | 1.11 ± 0.074 | 0.973 ± 0.044 | 1.03 ± 0.055
0.01372 µM | 1.07 ± 0.018 | 1.07 ± 0.025 | 1.11 ± 0.061 | 1 ± 0.027 | 0.983 ± 0.04
0.04115 µM | 1.07 ± 0.019 | 1.07 ± 0.032 | 1.07 ± 0.1 | 0.969 ± 0.024 | 0.974 ± 0.064
0.1235 µM | 1.11 ± 0.033 | 1.06 ± 0.046 | 1.09 ± 0.12 | 0.914 ± 0.039 | 0.968 ± 0.064
0.3704 µM | 1.11 ± 0.039 | 1.08 ± 0.019 | 1.03 ± 0.086 | 0.829 ± 0.028 | 0.911 ± 0.022
1.111 µM | 1.02 ± 0.032 | 1.02 ± 0.046 | 0.569 ± 0.061 | 0.647 ± 0.012 | 0.573 ± 0.027
3.333 µM | 0.767 ± 0.11 | 0.967 ± 0.048 | 0.0531 ± 0.046 | 0.381 ± 0.077 | 0.351 ± 0.036
10 µM | 0.173 ± 0.099 | 0.0212 ± 0.012 | 0.022 ± 0.0053 | 0.0144 ± 0.001 | 0.207 ± 0.0046

COc1cc(Nc2ncc3c(n2)-c2ccc(Cl)cc2C(c2c(F)cccc2OC)=NC3)ccc1C(=O)O [Alisertib]
relative viability
Conditions | HT1080 | KHOS-NP | RD | RD-ES | VA-ES-BJ
0.00017 µM | 1.11 ± 0.034 | 1.08 ± 0.019 | 1.08 ± 0.029 | 0.95 ± 0.042 | 0.995 ± 0.029
0.00051 µM | 1.07 ± 0.028 | 1.1 ± 0.021 | 1.1 ± 0.035 | 0.964 ± 0.036 | 0.997 ± 0.029
0.00152 µM | 1.08 ± 0.018 | 1.09 ± 0.021 | 1.09 ± 0.028 | 0.952 ± 0.049 | 0.984 ± 0.052
0.00457 µM | 1.06 ± 0.046 | 1.08 ± 0.019 | 1.06 ± 0.015 | 0.909 ± 0.03 | 0.992 ± 0.019
0.01372 µM | 1.07 ± 0.03 | 1.09 ± 0.013 | 1.07 ± 0.057 | 0.881 ± 0.045 | 0.969 ± 0.042
0.04115 µM | 0.994 ± 0.039 | 1.07 ± 0.014 | 1.04 ± 0.053 | 0.747 ± 0.14 | 0.919 ± 0.015
0.1235 µM | 0.974 ± 0.032 | 1.06 ± 0.018 | 0.863 ± 0.031 | 0.428 ± 0.013 | 0.747 ± 0.0085
0.3704 µM | 0.876 ± 0.026 | 1.05 ± 0.053 | 0.679 ± 0.028 | 0.256 ± 0.0056 | 0.604 ± 0.063
1.111 µM | 0.766 ± 0.037 | 0.951 ± 0.051 | 0.517 ± 0.04 | 0.213 ± 0.008 | 0.571 ± 0.03
3.333 µM | 0.715 ± 0.019 | 0.925 ± 0.034 | 0.517 ± 0.037 | 0.243 ± 0.013 | 0.523 ± 0.027
10 µM | 0.668 ± 0.022 | 0.672 ± 0.012 | 0.474 ± 0.031 | 0.236 ± 0.0027 | 0.505 ± 0.03

CCS(=O)(=O)N1CC(CC#N)(n2cc(-c3ncnc4[nH]ccc34)cn2)C1 [Baricitinib]
relative viability
Conditions | HT1080 | KHOS-NP | RD | RD-ES | VA-ES-BJ
0.00017 µM | 1.05 ± 0.029 | 1.04 ± 0.032 | 1.02 ± 0.032 | 0.981 ± 0.015 | 1.02 ± 0.05
0.00051 µM | 1.04 ± 0.013 | 1.04 ± 0.017 | 1.02 ± 0.023 | 0.9701 ± 0.0086 | 1.01 ± 0.038
0.00152 µM | 1.05 ± 0.017 | 1.052 ± 0.0074 | 1.03 ± 0.027 | 0.947 ± 0.03 | 1.02 ± 0.055
0.00457 µM | 1.04 ± 0.0015 | 1.06 ± 0.021 | 1.03 ± 0.034 | 0.9683 ± 0.0032 | 1.03 ± 0.023
0.01372 µM | 1.05 ± 0.018 | 1.04 ± 0.025 | 1.027 ± 0.01 | 0.951 ± 0.012 | 1.05 ± 0.053
0.04115 µM | 1.06 ± 0.029 | 1.04 ± 0.013 | 0.991 ± 0.039 | 0.947 ± 0.041 | 1.03 ± 0.021
0.1235 µM | 1.024 ± 0.0035 | 1.06 ± 0.021 | 0.999 ± 0.024 | 0.956 ± 0.017 | 1.03 ± 0.038
0.3704 µM | 1.04 ± 0.029 | 1.02 ± 0.011 | 1.03 ± 0.067 | 0.9847 ± 0.005 | 1.03 ± 0.015
1.111 µM | 1.02 ± 0.014 | 1.03 ± 0.019 | 1.051 ± 0.0038 | 1.03 ± 0.03 | 1.04 ± 0.021
3.333 µM | 1.07 ± 0.054 | 0.985 ± 0.03 | 1.12 ± 0.024 | 1.04 ± 0.028 | 1.06 ± 0.018
10 µM | 1.024 ± 0.0044 | 0.906 ± 0.011 | 1.03 ± 0.014 | 1.04 ± 0.0094 | 0.996 ± 0.025

Source: the supplement of paper PMC10883282
